# Measurements as given in patent US20230310441A1, “TREATMENT FOR SCHIZOPHRENIA” (TAKEDA PHARMACEUTICAL COMPANY, priority 2020, published 2023).
# Like-named read-outs stand apart in the source and are kept apart here.
# Key:
# Assay type in all cases: in vivo, human
# [1] = Phase 2 crossover study: safety in subjects with stable schizophrenia
# Text: The safety analysis set consisted of all subjects who were enrolled and received at least 1 dose of study drug. Safety measurements included adverse events, physical examinations, vital signs, clinical laboratory evaluations, ECGs, and C-SSRS.
# [2] = tested on: ventral striatum activation; experiment: fMRI BOLD ventral striatum activation in the MID Reward Task
# Text: After a break, subjects took the second block that comprised a battery of imaging tests; namely, brain perfusion using non-contrast arterial spin labeling MRI and fMRI scans which monitor changes in blood oxygen level-dependent (BOLD) signal. The fMRI was run in resting state without a task (resting state fMRI) and with 2 tasks (2-task fMRI) using the monetary incentive delay (MID) Reward Task and a Set-Shifting Task. After a break, subjects took the third block which comprised the Effort Expenditure for Rewards Task and the Empathic Accuracy Task. Subjects also received the Positive and Negative Syndrome Scale (PANSS), the Brief Negative Syndrome Scale (BNSS), and the Clinical Global Impression (CGI) Scales (CGI-Severity and CGI-Improvement) as a part of the PD assessment.
# The BOLD signal in the average of the left and right ventral striatum activation in the MID Reward Task 3.5 h post-dose on Day 1 and the BACS composite score on Day 14 were the primary PD measures.
# The observed BOLD signal was summarized (N, mean, median, SD, minimum, and maximum) by treatment (Compound (I) (overall and by dose) and placebo) and time. The BACS composite score was summarized for baseline, post-dose, and change from baseline by treatment, dose, and time.
# Each of the primary PD measures was analyzed using a Bayesian normal linear model with effects for sequence, period, treatment, time (as a categorical variable), the treatment-by-time interaction, subject within treatment sequence, and baseline (for BACS only). For the BOLD fMRI, the observed value was the response variable in the model. For the BACS, the observed and the change from baseline were modeled separately. Missing values were not imputed and were not included in the model under a missing at random assumption. A diffuse normal distribution with mean zero and variance 106 was used as a prior for the regression coefficients and a diffuse inverse gamma with shape and scale parameters of 0.01 for the residual variance.
# The criteria for a positive result at the IA was 70% posterior probability (or greater) of a difference between Compound (I) and placebo >0.09 in ventral striatum activation in the MID fMRI at 3.5 h post-dose on Day 1 or 70% (or greater) posterior probability of a difference between Compound (I) and placebo >2 points in the BACS composite score at Day 14.
# [3] = Phase 1 FIH study Part 4: plasma pharmacokinetics in patients with stable schizophrenia
# Procedure: Part 4 was a double-blind, weekly single dosing, parallel group design in patients with stable schizophrenia.
# Participants were randomly assigned 2:1 to receive either Compound (I) or placebo. For the participants receiving Compound (I), a loading dose was administered on Day 1, and a maintenance dose, at half the initial dose, on Days 8, 15, and 22. Participants in the placebo group received placebo on all study dosing days.
# Plasma and urine concentrations of Compound (I) and urine concentrations of cortisol and 6β-hydroxycortisol were measured by high performance liquid chromatography with tandem mass spectrometry. One 4 mL blood sample was collected per scheduled assessment. For participants receiving placebo, blood samples were analyzed only at pre-dose and around the time Cmax occurred (as emerging from the measurements of the first dose group) to ensure that no additional participants could have been on active treatment. Serial urine samples were collected for Part 1 cohorts 1-5 and Part 2 cohorts 1-4. Urine samples for participants receiving placebo were not analyzed. Urine samples were collected for the determination of cortisol and 6β-hydroxycortisol for Part 2 cohorts 1-4 and for all patients in Part 4. Samples for participants randomized to placebo were analyzed for these parameters.
# Pharmacokinetic parameters were determined from the concentration-time profiles for all evaluable participants. Actual sampling times were used in all computations. pharmacokinetic parameters were calculated using non-compartmental analysis using Phoenix WinNonLin v8.0 or SAS v 9.4.
# One participant in the 160/80 mg Compound (I) cohort in Part 4 (MRD study with patients with stable schizophrenia) missed the Day 15 dose. Pharmacokinetic concentrations for Day 22 for this participant were excluded from the mean plasma-concentration time profile and associated pharmacokinetic parameters were excluded from statistical analysis.
# One participant in the 160/80 mg Compound (I) cohort in Part 4 (MRD study with patients with stable schizophrenia) terminated the study following dosing on Day 1. The participant's PK parameters were excluded from statistical analysis.
# Another participant in the 160/80 mg Compound (I) cohort in Part 4 (MRD study with patients with stable schizophrenia) terminated the study following dosing on Day 22. Accordingly, all PK parameters for the participant other than tmax, Cmax, observed plasma concentration at the end of a dosing interval, AUC24, AUC48, and AUC96 were excluded from summary and statistical analysis.
# [4] = stable schizophrenia, oral, 160/80 mg, Day 22, N 14
smiles,measurement,setting,value
"C[C@H](NC(=O)Cn1nnc2ccccc2c1=O)c1ccc(OC(F)(F)F)cc1 [Compound (I), (S)-2-(4-oxobenzo[d][1,2,3]triazin-3(4H)-yl)-N-(1-(4-(trifluoromethoxy)phenyl)ethyl)acetamide]",deaths or serious adverse events,[1]; phase 2,no deaths or serious adverse events
same,discontinuation of study medication due to TEAEs,[1]; phase 2,No subjects discontinued study medication due to TEAEs
same,safety and tolerability,"[1]; phase 2, single doses 40 or 160 mg, add-on to antipsychotics",safe and well-tolerated
same,ventral striatal activation relative to placebo,[2]; Day 1,decrease in ventral striatal activation
same,"posterior mean (SD) for the difference to placebo, fMRI BOLD endpoint","[2]; Day 1, 40 mg",−0.1 (0.21)
same,"posterior mean (SD) for the difference to placebo, fMRI BOLD endpoint","[2]; Day 1, 160 mg",−0.15 (0.14)
same,"posterior mean (SD) for the difference to placebo, fMRI BOLD endpoint","[2]; Day 1, overall",−0.14 (0.11)
same,ventral striatal activation relative to placebo,[2]; Day 14,dose-related increase in activation relative to placebo
same,steady-state mean t1/2z,"[3]; Part 4 MRD, schizophrenia participants",334 h
same,peak systemic exposure lower in schizophrenia participants compared with healthy participants,[3]; Part 4 vs healthy,23-30%
same,total systemic exposure lower for schizophrenia participants compared with healthy participants,[3]; Part 4 vs healthy,22-27%
same,Cmax,"[3]; human, plasma, oral, Part 4 MRD, 160/80 mg, up to 168 h post-dose, read-out: Mean Cmax (SD)",1270 ng/mL
same,Tmax,"[3]; human, plasma, oral, Part 4 MRD, schizophrenia patients, read-out: median tmax",1.8 h
same,AUC(0-t),"[3]; human, plasma, po, stable schizophrenia, oral, 160/80 mg, Day 1, N 15",149 µg·h/mL
same,AUC,"[3]; human, plasma, po, stable schizophrenia, oral, 160/80 mg, Day 1, N 15, read-out: AUC24 (mean)",20.4 µg·h/mL
same,AUC,"[3]; human, plasma, po, stable schizophrenia, oral, 160/80 mg, Day 1, N 15, read-out: AUC96 (mean)",90.4 µg·h/mL
same,AUC,"[3]; human, plasma, po, stable schizophrenia, oral, 160/80 mg, Day 1, N 15, read-out: AUCτ (mean)",149 µg·h/mL
same,Cmax,"[3]; human, plasma, po, stable schizophrenia, oral, 160/80 mg, Day 1, N 15, read-out: Cmax (mean)",1270 ng/mL
same,Tmax,"[3]; human, plasma, po, stable schizophrenia, oral, 160/80 mg, Day 1, N 15, read-out: tmax (median)",2 h
same,AUC(0-t),"[3]; human, plasma, po, stable schizophrenia, oral, 160/80 mg, Day 22, N 14",660 µg·h/mL
same,AUC,"[3]; human, plasma, po, stable schizophrenia, oral, 160/80 mg, Day 22, N 14, read-out: AUC24 (mean)",35.5 µg·h/mL
same,AUC,"[3]; human, plasma, po, stable schizophrenia, oral, 160/80 mg, Day 22, N 14, read-out: AUC96 (mean)",140 µg·h/mL
same,AUC,"[3]; human, plasma, po, stable schizophrenia, oral, 160/80 mg, Day 22, N 14, read-out: AUCτ (mean)",227 µg·h/mL
same,Cmax,"[3]; human, plasma, po, stable schizophrenia, oral, 160/80 mg, Day 22, N 14, read-out: Cmax (mean)",1880 ng/mL
same,Tmax,"[3]; human, plasma, po, stable schizophrenia, oral, 160/80 mg, Day 22, N 14, read-out: tmax (median)",1.8 h
same,Vd/F,"[3]; human, plasma, stable schizophrenia, oral, 160/80 mg, Day 22, N 14, read-out: Vz/F (mean)",172 L
same,CL/F (mean),[3]; [4],365.5 mL/h
same,"Cav,ss (mean)",[3]; [4],1352.6 ng/mL
same,Ctrough (mean),[3]; [4],950.4 ng/mL
same,t1/2z (mean),[3]; [4],333.8 h
